Non-standard residues stand in square brackets, D forms with d. Residues, ends and D or L forms follow the SMILES beside them. *: point of attachment. X1 = Cc1c2c(c(O)c3c(O)c(N*)ccc13)C(=O)[C@]1(O)C(=O)C(C(N)=O)=C(O)[C@@H](N(C)C)[C@@H]1C2; AEEEA = NCCOCCOCCOCC(=O)O
Assays:
HeLa [1] = experiment: Transactivation of Reverse transactivator Tet repressor-S3 SL439, FG442, SL444 and FA475 mutant expressed in human HeLa cells at 5 uM after 24 hrs by luciferase reporter gene assay relative to untreated basal level; assay type: cell-based
HeLa [2] = experiment: Transactivation of reverse transactivator Tet repressor-S3 expressed in human HeLa cells at 5 uM after 24 hrs by luciferase reporter gene assay relative to anhydrotetracycline; assay type: cell-based

Compound | fold change (FC) (HeLa [1]) | Activity (HeLa [2])
Cc1c2c(c(O)c3c(O)cccc13)C(=O)[C@]1(O)C(=O)C(C(N)=O)=C(O)[C@@H](N(C)C)[C@@H]1C2 | 3 | 
CSCC[C@H](NC(=O)[C@H](CC(=O)O)NC(=O)[C@H](CC(C)C)NC(=O)[C@H](CC(=O)O)NC(=O)[C@H](Cc1ccccc1)NC(=O)[C@@H](N)CC(=O)O)C(=O)N[C@@H](CC(C)C)C(=O)NCC(=O)NCCOCCOCCOCC(=O)Nc1ccc2c(C)c3c(c(O)c2c1O)C(=O)[C@]1(O)C(=O)C(C(N)=O)=C(O)[C@@H](N(C)C)[C@@H]1C3 (H-DFDLDMLG[AEEEA]-X1) |  | 150%
CSCC[C@H](NC(=O)[C@H](CC(=O)O)NC(=O)[C@H](CC(C)C)NC(=O)[C@H](CC(=O)O)NC(=O)[C@H](Cc1ccccc1)NC(=O)[C@H](CC(=O)O)NC(=O)CNC(=O)[C@H](CC(C)C)NC(=O)[C@H](CCSC)NC(=O)[C@H](CC(=O)O)NC(=O)[C@H](CC(C)C)NC(=O)[C@H](CC(=O)O)NC(=O)[C@H](Cc1ccccc1)NC(=O)[C@H](CC(=O)O)NC(=O)COCCOCCOCCN)C(=O)N[C@@H](CC(C)C)C(=O)NCC(=O)NCCOCCOCCOCC(=O)Nc1ccc2c(C)c3c(c(O)c2c1O)C(=O)[C@]1(O)C(=O)C(C(N)=O)=C(O)[C@@H](N(C)C)[C@@H]1C3 (H-[AEEEA]DFDLDMLGDFDLDMLG[AEEEA]-X1) | 9 | 190%

Reference: ChEMBL document CHEMBL1212867, “Anhydrotetracycline-peptide conjugates as representatives for ligand-based transactivating systems” (Bioorg Med Chem, 2010)
